Measured values taken from patent publication EP1276895B1, “METHOD FOR THE IDENTIFICATION OF ACTIVE SITE PROTEASE INACTIVATORS” (THE UNIVERSITY OF GEORGIA RESEARCH FOUNDATION, INC., priority 2000, dated 2001).
Residues, ends and D or L forms follow the SMILES beside them. *: point of attachment. AFC = O=c1cc(C(F)(F)F)c2ccc(N*)cc2o1; Cbz = O=C(OCc1ccccc1)*; CH2F = FC*

How the values were obtained:
Trypsin (serine) = assay: Differential cleavage (selectivity) test, Trypsin; format: biochemical, human; conditions: 0.15 M PBS pH 8.0, 100 mM CaCl2, substrate Z-R-AFC
Procedure: (§1) In order to perform the assay, the vehicle (for Step VI) or inhibitor (for Step IX) were incubated with the appropriate substrate in the correct assay buffer and allowed to equilibrate. Subsequently, the protease was added, and the assay was allowed to incubate for an appropriate time. The concentrations used in this experiment were as follows: Vehicle was set up at 4 X 10^-5 M in final assay buffer; Inhibitor was set up at 3 X 10^-10 M in the final assay buffer. Accordingly, the dosages employed should be the minimal amount of vehicle or inhibitor necessary to induce inhibition. […] Substrates were set up based upon the preferred substrate for cleavage of the particular enzyme.
(§2) Positive controls were set up similarly as described for test controls, except that solvent was added in substitution for the inhibitor or vehicle (in a volume equal to the volume of inhibitor or vehicle addition). All of the inhibitors and vehicles could be dissolved in dimethylsulfoxide (DMSO), and therefore, this was the solvent of choice. Negative controls were set up by adding the inhibitor or vehicle and the preferred substrates in a tube without the protease. All potential non-proteolytic liberation of AFC was therefore controlled for in this tube (a feature which also insured stability of the AFC substrates, since these substrates will freely liberate AFC when unstable).
(§3) All controls were set up in triplicate, and experiments were repeated a minimum of five times.
(§4) Percent inhibition was calculated as: % Inhibition = ((AFC positive for ʺSIʺ-AFC negative for ʺSIʺ)-(AFC test-AFC negative for ʺSIʺ))/(AFC positive for ʺSIʺ-AFC negative for ʺSIʺ) × 100 [formula] In this preliminary test, we employed the following human-derived enzymes (with indicated mechanistic class): Cathepsin B (cysteine), Cathepsin L (cysteine), Cathepsin H (cysteine), Cathepsin D (aspartic) Trypsin (serine), the purified Taenia solium cysteine protease, and the Taenia solium crude mix. Cathepsin B was prepared in an assay buffer of 10 mM L-cysteine in 0.4 M Citrate buffer, pH 6.1, using Z-ARR-AFC as the cleavage substrate. Cathepsin L was prepared in an assay buffer of 10 mM L-cysteine in 0.4 M Citrate buffer, pH 5.5, using Z-FR-AFC as the cleavage substrate. Cathepsin H was prepared in an assay buffer of 10 mM L-cysteine in 0.15 M PBS buffer, pH 6.8, using L-R-AFC as the cleavage substrate. Cathepsin D was prepared in an assay buffer of 0.15 M PBS, pH 7.1, using Z-RGFFP-AFC as the cleavage substrate. Trypsin was prepared in an assay buffer of 0.15 M PBS, pH 8.0, supplemented with 100 mM CaCl2 and with Z-R-AFC as the cleavage substrate. Enzyme was incubated so that it was at least 50 times less than the concentration of substrate in order to insure saturating conditions.

[1] = tested on: purified Taenia solium cysteine protease; assay: Differential cleavage (selectivity) test, T. solium protease; format: biochemical
Procedure: as §1, §2, §3, §4

[2] = tested on: purified Taenia solium cysteine protease; assay: Substrate cleavage screen of AFC-linked synthetic substrates (Step II), purified protease; format: biochemical; conditions: 1 ug purified protease, 1 ug substrate, Citrate pH 4.9 with 0.01 M cysteine, 18 h, 37 °C
Cathepsin B (cysteine) = Cathepsin B (cysteine) (Homo sapiens, UniProt P07858); assay: Differential cleavage (selectivity) test, Cathepsin B; format: biochemical; conditions: 0.4 M Citrate pH 6.1, 10 mM L-cysteine, substrate Z-ARR-AFC; for inhibition at 0.0003 µM: inhibitor 3 X 10^-10 M
Procedure: as §1, §2, §3, §4

Cathepsin D (aspartic) = Cathepsin D (aspartic) (Homo sapiens, UniProt P07339); assay: Differential cleavage (selectivity) test, Cathepsin D; format: biochemical; conditions: 0.15 M PBS pH 7.1, substrate Z-RGFFP-AFC; for inhibition at 0.0003 µM: inhibitor 3 X 10^-10 M
Procedure: as §1, §2, §3, §4

Cathepsin L (cysteine) = Cathepsin L (cysteine) (Homo sapiens, UniProt P07711); assay: Differential cleavage (selectivity) test, Cathepsin L; format: biochemical; conditions: 0.4 M Citrate pH 5.5, 10 mM L-cysteine, substrate Z-FR-AFC
Procedure: as §1, §2, §3, §4

[3] = inhibitor 3 X 10^-10 M, 0.0003 µM

Cathepsin D (aspartic), sequence (P07339 65-412): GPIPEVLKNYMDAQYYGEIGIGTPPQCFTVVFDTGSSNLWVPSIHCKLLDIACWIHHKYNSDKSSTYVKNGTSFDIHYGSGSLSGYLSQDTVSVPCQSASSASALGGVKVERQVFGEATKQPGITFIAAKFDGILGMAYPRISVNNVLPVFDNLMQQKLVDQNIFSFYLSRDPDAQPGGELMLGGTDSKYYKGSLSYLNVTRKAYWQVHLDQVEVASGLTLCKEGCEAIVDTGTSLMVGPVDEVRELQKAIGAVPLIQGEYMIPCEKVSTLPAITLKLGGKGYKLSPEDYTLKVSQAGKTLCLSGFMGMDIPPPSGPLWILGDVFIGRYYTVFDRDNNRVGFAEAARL
Cathepsin L (cysteine), sequence (P07711 114-333): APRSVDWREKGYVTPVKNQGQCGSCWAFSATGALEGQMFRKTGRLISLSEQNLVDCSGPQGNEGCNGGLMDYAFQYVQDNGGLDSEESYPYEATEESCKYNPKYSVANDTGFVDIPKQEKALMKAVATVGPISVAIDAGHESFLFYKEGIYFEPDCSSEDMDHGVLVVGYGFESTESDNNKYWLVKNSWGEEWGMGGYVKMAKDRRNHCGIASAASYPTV

Compound | % Inhibition (Trypsin (serine); vehicle 4 X 10^-5 M, 40 µM) | % Inhibition ([1]; vehicle 4 X 10^-5 M) | cleavage of AFC-linked substrate (Vmax) [2] | inhibition at 40 µM (Cathepsin B (cysteine); vehicle 4 X 10^-5 M) | inhibition at 40 µM (Cathepsin D (aspartic); vehicle 4 X 10^-5 M) | inhibition at 40 µM (Cathepsin L (cysteine); vehicle 4 X 10^-5 M) | % Inhibition (Trypsin (serine); [3]) | % Inhibition ([1]; inhibitor 3 X 10^-10 M) | inhibition at 0.0003 µM (Cathepsin B (cysteine)) | inhibition at 0.0003 µM (Cathepsin D (aspartic)) | inhibition at 0.0003 µM (Cathepsin L (cysteine); inhibitor 3 X 10^-10 M) | % Inhibition (Cathepsin L (cysteine); [3]) | cleavage of AFC-linked substrate (Vmax) ([2]; listed as M-LY-AFC) | % Inhibition (Cathepsin B (cysteine); vehicle 4 X 10^-5 M, 40 µM) | % Inhibition (Cathepsin D (aspartic); vehicle 4 X 10^-5 M, 40 µM) | % Inhibition (Cathepsin L (cysteine); vehicle 4 X 10^-5 M) | % Inhibition (Cathepsin L (cysteine); vehicle 4 X 10^-5 M, 40 µM)
CC(C)C[C@H](NC(=O)OCc1ccccc1)C(=O)N[C@@H](CC(C)C)C(=O)N[C@@H](CC(C)C)C(=O)Nc1ccc2c(C(F)(F)F)cc(=O)oc2c1 [Z-LLL-AFC, Z-Leu-Leu-Leu-AFC] (Cbz-Leu-Leu-Leu-{AFC}) | 0% | 68% | noncleavable | 0% | 0% | 0% | – | – | – | – | – | – | – | – | – | – | –
CC(C)C[C@H](NC(=O)[C@H](CC(C)C)NC(=O)[C@H](CC(C)C)NC(=O)OCc1ccccc1)C(=O)CF [Z-LLL-FMK, Z-Leu-Leu-Leu-fluoromethylketone] (Cbz-Leu-Leu-Leu-CH2F) | – | – | – | – | – | – | 0% | 98% | 0% | 0% | 50% | almost half of the inhibition of the Taenia solium cysteine protease | – | – | – | – | –
CC(C)C[C@H](NC(=O)OCc1ccccc1)C(=O)N[C@@H](CC(C)C)C(=O)N[C@@H](Cc1ccc(O)cc1)C(=O)Nc1ccc2c(C(F)(F)F)cc(=O)oc2c1 [Z-LLY-AFC, Z-Leu-Leu-Tyr-AFC] (Cbz-Leu-Leu-Tyr-{AFC}) | 0% | 70% | noncleavable | 0% | 0% | 0% | – | – | – | – | – | – | – | – | – | – | –
CC(C)C[C@H](NC(=O)OCc1ccccc1)C(=O)N[C@@H](CC(C)C)C(=O)N[C@@H](Cc1ccc(O)cc1)C(=O)CF [Z-LLY-FMK, Z-Leu-Leu-Tyr-FMK] (Cbz-Leu-Leu-Tyr-CH2F) | – | – | – | – | – | – | 0% | 62% | 0% | 0% | 0% | did not inhibit cathepsin L at all | – | – | – | – | –
Mu-Leu-Tyr-AFC [Mu-LY-AFC] | 0% | 75% | not cleaved | – | – | – | – | – | – | – | – | – | noncleavable | 0% | 0% | 25% | subtle inhibition
